The results in this text go back to patent US20250382305A1 (PTC THERAPEUTICS, INC., priority 2022, published 2025).

Bounds are passed on as bounds.

Assay [1] deals with Total ATXN3 (tATXN3) protein. As to the kind of experiment: Endogenous Total ATXN3 (tATXN3) Protein Assay (MSD immunoassay of cell lysates). The settings on record: average IC50, total ATXN3 protein in cell lysate after 48 h with compound (Table 1). It is filed as cell-based. The essentials: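 By electrochemiluminescent MSD sandwich immunoassay (mouse monoclonal capture, rabbit monoclonal and SULFO-TAG anti-rabbit detection), endogenous ATXN3 was quantified in lysates of cells treated 48 h at 37° C at 10,000 cells/well. Treatment used a 7-point 3.16-fold duplicate dilution series, with average IC50 grouped into star categories.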

A further assay deals with ATXN3 pre-mRNA. Description: RT-qPCR Assay to Quantify Exon 4 Skipping in ATXN3 pre-mRNA in Cells. It counts as cell-based. The conditions noted are these: percent exon 4 skipping in ATXN3 pre-mRNA, RT-qPCR of cell lysates; average IC50. An outline of the steps:
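IC50 derives from a dose-response fit of percent exon 4 skipping, quantified by RT-qPCR on crude lysates. Compounds tested as 7-point 3.16-fold dilutions in duplicate; cells (10,000/well) were exposed for 24 h at 37 °C before lysis.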

The term IC50 denotes the midpoint of a concentration-inhibition curve. With `Cc1c([C@@H]2[C@@H](N)CCCC2(F)F)sc2c(NCc3cccs3)cc(Cl)nc12` [Compound 338, 2-((1R,6S)-6-amino-2,2-difluorocyclohexyl)-5-chloro-3-methyl-N-(thiophen-2-ylmethyl)thieno[3,2-b]pyridin-7-amine], the IC50 (in assay [1]; in the assay with ATXN3 pre-mRNA) was 30 to 300 nM in each case.
For `N[C@@H]1CC=CC[C@H]1c1c(I)c2nc(Cl)nc(NCc3ccco3)c2n1C(F)F` [Compound 379, 6-((1R,6R)-6-aminocyclohex-3-en-1-yl)-2-chloro-5-(difluoromethyl)-N-(furan-2-ylmethyl)-7-iodo-5H-pyrrolo[3,2-d]pyrimidin-4-amine], the 50% inhibitory concentration (IC50) (in assay [1]; in the assay with ATXN3 pre-mRNA) was 30 to 300 nM throughout.
In the case of `Cc1c([C@H]2CC=CC[C@@H]2N)sc2c(NCc3ccncc3)nc(Cl)nc12` [Compound 234, 6-((1S,6S)-6-aminocyclohex-3-en-1-yl)-2-chloro-7-methyl-N-(pyridin-4-ylmethyl)thieno[3,2-d]pyrimidin-4-amine], the IC50 (in assay [1]; with ATXN3 pre-mRNA) was at most 30 nM throughout.
On to `N[C@H]1CC=CC[C@@H]1c1sc2c(NCc3cccs3)cc(Cl)nc2c1I` [Compound 176, 2-((1S,6S)-6-aminocyclohex-3-en-1-yl)-5-chloro-3-iodo-N-(thiophen-2-ylmethyl)thieno[3,2-b]pyridin-7-amine], for which the half-maximal inhibitory concentration (IC50) (in assay [1]; in the assay with ATXN3 pre-mRNA) was at most 30 nM each time.
With `[2H]C1=C([2H])C([2H])([2H])[C@H](c2sc3c(NC([2H])([2H])c4ccccc4)cc(Cl)nc3c2C)[C@@H](N)C1([2H])[2H]` [Compound 322, 2-((1S,6S)-6-aminocyclohex-3-en-1-yl-2,2,3,4,5,5-d6)-5-chloro-3-methyl-N-(phenylmethyl-d2)thieno[3,2-b]pyridin-7-amine], the IC50 (in assay [1]; with ATXN3 pre-mRNA) was 30 to 300 nM throughout.
For `N[C@H]1CCCO[C@@H]1c1sc2c(NCc3cccs3)cc(Cl)nc2c1Br` [Compound 56, 2-((2S,3S)-3-aminotetrahydro-2H-pyran-2-yl)-3-bromo-5-chloro-N-(thiophen-2-ylmethyl)thieno[3,2-b]pyridin-7-amine], the results for the concentration for half-maximal inhibition (IC50) (in assay [1]; with ATXN3 pre-mRNA) were 300 to 1000 nM and 30 to 300 nM, respectively.
`N[C@H]1CCCCC[C@@H]1c1sc2c(NCc3cccs3)cc(Cl)nc2c1I` [Compound 163, 2-((1S,2S)-2-aminocycloheptyl)-5-chloro-3-iodo-N-(thiophen-2-ylmethyl)thieno[3,2-b]pyridin-7-amine]: the results for the IC50 (in assay [1]; with ATXN3 pre-mRNA) were 30 to 300 nM and at most 30 nM, respectively.
As to `COC(=O)CNc1cc(Cl)nc2c(Br)c([C@H]3CC=CC[C@@H]3N)sc12` [Compound 366, methyl (2-((1S,6S)-6-aminocyclohex-3-en-1-yl)-3-bromo-5-chlorothieno[3,2-b]pyridin-7-yl)glycinate], the concentration for half-maximal inhibition (IC50) (in assay [1]; with ATXN3 pre-mRNA) was 30 to 300 nM throughout.
For `N[C@H]1CC=CC[C@@H]1c1sc2c(NCc3ncco3)cc(Cl)nc2c1Cl` [Compound 199, 2-((1S,6S)-6-aminocyclohex-3-en-1-yl)-3,5-dichloro-N-(oxazol-2-ylmethyl)thieno[3,2-b]pyridin-7-amine], the IC50 (in assay [1]; with ATXN3 pre-mRNA) was at most 30 nM in each case.
With `N[C@H]1CCC[C@@H]1c1sc2c(NCc3cccs3)cc(Cl)nc2c1Br` [Compound 8, 2-((1S,2S)-2-aminocyclopentyl)-3-bromo-5-chloro-N-(thiophen-2-ylmethyl)thieno[3,2-b]pyridin-7-amine], the 50% inhibitory concentration (IC50) (in assay [1]; in the assay on ATXN3 pre-mRNA) was at most 30 nM throughout.
Consider `CC#CCNc1cc(Cl)nc2c(C)c([C@H]3CC=CC[C@@H]3N)sc12` [Compound 306, 2-((1S,6S)-6-aminocyclohex-3-en-1-yl)-N-(but-2-yn-1-yl)-5-chloro-3-methylthieno[3,2-b]pyridin-7-amine], for which the half-inhibitory concentration (IC50) (in assay [1]; in the assay with ATXN3 pre-mRNA) was 30 to 300 nM in each case.
Turning to `N[C@@H]1CC(F)(F)CC[C@@H]1c1sc2c(NCc3cccs3)cc(Cl)nc2c1Br.N[C@H]1CC(F)(F)CC[C@H]1c1sc2c(NCc3cccs3)cc(Cl)nc2c1Br` (mixture of isomers) [Compound 30, 2-((1R,2S)-2-amino-4,4-difluorocyclohexyl)-3-bromo-5-chloro-N-(thiophen-2-ylmethyl)thieno[3,2-b]pyridin-7-amine and 2-((1S,2R)-2-amino-4,4-difluorocyclohexyl)-3-bromo-5-chloro-N-(thiophen-2-ylmethyl)thieno[3,2-b]pyridin-7-amine], the IC50 (in assay [1]; with ATXN3 pre-mRNA) was above 1000 nM throughout.
Turning to `N[C@H]1CCCO[C@@H]1c1sc2c(NCc3ccco3)cc(Cl)nc2c1Cl` [Compound 116, 2-((2S,3S)-3-aminotetrahydro-2H-pyran-2-yl)-3,5-dichloro-N-(furan-2-ylmethyl)thieno[3,2-b]pyridin-7-amine], the half-maximal inhibitory concentration (IC50) (in assay [1]; in the assay with ATXN3 pre-mRNA) was at most 30 nM each time.
As for “6-((1R,2R)-2-aminocyclohexyl)-N-benzyl-2-chloro-7-methylthieno[3,2-d]pyrimidin-4-amine or 6-((1S,2S)-2-aminocyclohexyl)-N-benzyl-2-chloro-7-methylthieno[3,2-d]pyrimidin-4-amine [Compound 48]”, the IC50 (in assay [1]; in the assay with ATXN3 pre-mRNA) was 30 to 300 nM each time.
“2-((2R,3R)-3-amino-5-methylenetetrahydro-2H-pyran-2-yl)-3-bromo-5-chloro-N-(thiophen-2-ylmethyl)thieno[3,2-b]pyridin-7-amine and 2-((2S,3S)-3-amino-5-methylenetetrahydro-2H-pyran-2-yl)-3-bromo-5-chloro-N-(thiophen-2-ylmethyl)thieno[3,2-b]pyridin-7-amine [Compound 259]”: the half-inhibitory concentration (IC50) (in assay [1]; in the assay with ATXN3 pre-mRNA) was 30 to 300 nM each time.
As for `N[C@H]1CC=CC[C@@H]1c1sc2c(NCc3cccs3)cc(Cl)nc2c1Br` [Compound 186, 2-((1S,6S)-6-aminocyclohex-3-en-1-yl)-3-bromo-5-chloro-N-(thiophen-2-ylmethyl)thieno[3,2-b]pyridin-7-amine], the IC50 (in assay [1]; in the assay on ATXN3 pre-mRNA) was at most 30 nM in each case.
For the compound `N[C@H]1CC=CC[C@@H]1c1c(I)c2nc(Cl)cc(NCc3cccs3)c2n1C(F)F` [Compound 325, 2-((1S,6S)-6-aminocyclohex-3-en-1-yl)-5-chloro-1-(difluoromethyl)-3-iodo-N-(thiophen-2-ylmethyl)-1H-pyrrolo[3,2-b]pyridin-7-amine], the IC50 (in assay [1]; in the assay on ATXN3 pre-mRNA) was 30 to 300 nM throughout.
Turning to “2-((2R,3S)-3-aminopiperidin-2-yl)-3-bromo-5-chloro-N-(thiophen-2-ylmethyl)thieno[3,2-b]pyridin-7-amine and 2-((2S,3R)-3-aminopiperidin-2-yl)-3-bromo-5-chloro-N-(thiophen-2-ylmethyl)thieno[3,2-b]pyridin-7-amine [Compound 46]”, the IC50 (in assay [1]; in the assay on ATXN3 pre-mRNA) was above 1000 nM throughout.
Consider `N[C@@H]1CCCC[C@H]1c1sc2c(NCc3cccs3)cc(Cl)nc2c1C1CC1` [Compound 137, 2-((1R,2R)-2-aminocyclohexyl)-5-chloro-3-cyclopropyl-N-(thiophen-2-ylmethyl)thieno[3,2-b]pyridin-7-amine], for which the IC50 (in assay [1]; with ATXN3 pre-mRNA) was above 1000 nM in each case.
On to `CCc1c([C@H]2CCCCC[C@@H]2N)sc2c(NCc3cccs3)cc(Cl)nc12` (single isomer, unassigned) [Compound 87, 2-((1S,2S)-2-aminocycloheptyl)-5-chloro-3-ethyl-N-(thiophen-2-ylmethyl)thieno[3,2-b]pyridin-7-amine or 2-((1R,2R)-2-aminocycloheptyl)-5-chloro-3-ethyl-N-(thiophen-2-ylmethyl)thieno[3,2-b]pyridin-7-amine], for which the IC50 (in assay [1]; with ATXN3 pre-mRNA) was 30 to 300 nM throughout.
With `N[C@@H]1CC=CC[C@H]1c1sc2c(NCc3ccco3)cc(Cl)nc2c1I` [Compound 327, 2-((1R,6R)-6-aminocyclohex-3-en-1-yl)-5-chloro-N-(furan-2-ylmethyl)-3-iodothieno[3,2-b]pyridin-7-amine], the IC50 (in assay [1]; in the assay on ATXN3 pre-mRNA) was 30 to 300 nM throughout.
With `N[C@H]1CCCO[C@@H]1c1sc2c(NCc3ccccc3)cc(Cl)nc2c1Cl` [Compound 110, 2-((2S,3S)-3-aminotetrahydro-2H-pyran-2-yl)-N-benzyl-3,5-dichlorothieno[3,2-b]pyridin-7-amine], the results for the IC50 (in assay [1]; with ATXN3 pre-mRNA) were 30 to 300 nM and at most 30 nM, respectively.
On to `N[C@@H]1CCCO[C@H]1c1sc2c(NCc3ccco3)nc(Cl)nc2c1Br` (single isomer, unassigned) [Compound 42, 6-((2R,3R)-3-aminotetrahydro-2H-pyran-2-yl)-7-bromo-2-chloro-N-(furan-2-ylmethyl)thieno[3,2-d]pyrimidin-4-amine or 6-((2S,3S)-3-aminotetrahydro-2H-pyran-2-yl)-7-bromo-2-chloro-N-(furan-2-ylmethyl)thieno[3,2-d]pyrimidin-4-amine], for which the IC50 (in assay [1]; in the assay on ATXN3 pre-mRNA) was 300 to 1000 nM in each case.
As for `N[C@H]1CCCC[C@H]1c1cc2nc(Cl)cc(NCc3cccs3)c2s1` [Compound 22, 2-((1R,2S)-2-aminocyclohexyl)-5-chloro-N-(thiophen-2-ylmethyl)thieno[3,2-b]pyridin-7-amine], the IC50 (in assay [1]; with ATXN3 pre-mRNA) was 300 to 1000 nM each time.
In the case of “2-((1S,6S)-6-aminocyclohex-3-en-1-yl)-5-chloro-N-(thiophen-2-ylmethyl)thieno[3,2-b]pyridin-7-amine [Compound 448]”, the concentration for half-maximal inhibition (IC50) in assay [1] is above 1000 nM; in the assay with ATXN3 pre-mRNA, 30 to 300 nM.
Taken in the same sequence, the figures for `CC#CCNc1cc(Cl)nc2c(Cl)c([C@H]3CC=CC[C@@H]3N)sc12` [Compound 250, 2-((1S,6S)-6-aminocyclohex-3-en-1-yl)-N-(but-2-yn-1-yl)-3,5-dichlorothieno[3,2-b]pyridin-7-amine] were 30 to 300 nM and 30 to 300 nM.
